The source of these data is ChEMBL document CHEMBL6114994, “Ligustrazine as a multitarget scaffold in drug design and discovery” (Bioorg Med Chem, 2025).

Converted amounts (≈) assume the structure as drawn. Where only a bound is given, the exact number is not on record here.

Data set [1] deals with T1, Acetylcholinesterase (Homo sapiens, UniProt P22303). As to the kind of experiment: Inhibition of AChE (unknown origin).
Data set [2] has as its target T1, Acetylcholinesterase. As to the kind of experiment: Inhibition of AChE (unknown origin) by Ellman's method. In general terms: Ellman's reagent forms a yellow product with free thiols.
A short description of data set [3]: Cytoprotective activity against H2O2-induced oxidative stress in human HBMEC-2 cells assessed as increase in cell viability incubated for 24 hrs by MTT assay. The format is functional, cell-based. Conditions: HBMEC-2, 24 h.
In another data set the test system is HCT-116. As to the kind of experiment: Antiproliferative activity against human HCT-116 cells assessed as reduction in cell viability incubated for 72 hrs by MTT assay. The format is functional, cell-based. Conditions: HCT-116, 72 h.
Another data set concerns MCF7. Kind of data set: Antiproliferative activity against human MCF7 cells assessed as reduction in cell viability incubated for 72 hrs by MTT assay. The format is functional, cell-based. Conditions: MCF7, 72 h. A general note: Tetrazolium assays rely on reduction of a dye to a coloured formazan, in cell work by metabolically active cells.
For a further data set, the system named is MDA-MB-231. Kind of data set: Antiproliferative activity against human MDA-MB-231 cells assessed as reduction in cell viability incubated for 72 hrs by MTT assay. Conditions: MDA-MB-231, 72 h. The format is functional, cell-based.
Data set [4] is described as follows: Solubility in water. It is filed as physicochemical.
Data set [5] addresses T2, Prostaglandin G/H synthase 1 (Ovis aries, UniProt P05979).
T2 sequence (P05979 whole entry): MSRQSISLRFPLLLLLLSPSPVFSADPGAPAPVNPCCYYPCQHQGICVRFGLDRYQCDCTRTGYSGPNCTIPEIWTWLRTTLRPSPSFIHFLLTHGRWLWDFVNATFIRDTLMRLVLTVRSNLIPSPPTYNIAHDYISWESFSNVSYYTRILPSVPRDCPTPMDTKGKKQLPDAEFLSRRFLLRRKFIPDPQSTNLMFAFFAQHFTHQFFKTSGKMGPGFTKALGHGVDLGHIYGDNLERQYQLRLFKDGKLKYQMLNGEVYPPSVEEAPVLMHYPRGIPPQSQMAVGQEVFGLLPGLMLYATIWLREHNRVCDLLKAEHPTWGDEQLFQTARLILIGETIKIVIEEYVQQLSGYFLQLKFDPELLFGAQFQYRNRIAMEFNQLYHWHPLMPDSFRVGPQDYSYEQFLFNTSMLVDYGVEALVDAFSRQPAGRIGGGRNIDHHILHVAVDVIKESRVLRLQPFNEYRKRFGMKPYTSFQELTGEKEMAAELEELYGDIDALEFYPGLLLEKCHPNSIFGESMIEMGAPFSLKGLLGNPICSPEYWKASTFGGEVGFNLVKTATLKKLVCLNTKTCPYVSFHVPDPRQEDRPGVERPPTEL
As to the kind of experiment: Inhibition of ovine COX-1 by EIA method.

The next data set has as its system PC-12. Kind of data set: Cytoprotective activity against COCL2-induced cellular damage in rat PC12 cells assessed as reduction in cell viability incubated for 48 hrs by MTT assay. The format is functional, cell-based. Conditions: PC-12, 48 h.
A short description of data set [6]: Inhibition of Lipoxygenase (unknown origin). Details: species or system Homo sapiens.
Data set [7] has as its system SH-SY5Y. As to the kind of experiment: Cytoprotective activity against OGD/R induced human SH-SY5Y cells assessed as assessed as cell survival rate at 10 uM measured after 8 hrs by MTT assay relative to control. It is filed as functional.
Data set [8] in a line: Solubility in water by HPLC analysis. It is filed as physicochemical.
The next data set deals with A549. Kind of data set: cells. Conditions: Homo sapiens.
For data set [9], the target named is Aldo-keto reductase family 1 member B1 (Rattus norvegicus, UniProt P07943). Kind of data set: Inhibition of rat lens aldose reductase.
The nature of data set [10]: Inhibition of accumulation of sorbitol in human Red blood cells. It is filed as functional, cell-based. Conditions: erythrocyte.
The next data set concerns HUVEC. As to the kind of experiment: Protection against H2O2-induced oxidative stress in HUVEC cells. It is filed as functional, cell-based. As to conditions: Homo sapiens.
Data set [11] deals with SH-SY5Y. As to the kind of experiment: Cytoprotective activity against H2O2-induced oxidative stress in human SH-SY5Y cells assessed as increase in cell viability incubated for 24 hrs by MTT assay. The format is functional, cell-based.
For a further data set, the system named is MDCK. Kind of data set: Cytotoxicity against dog MDCK cells assessed as inhibition of cell growth at 10 uM relative to control. The format is functional, Canis lupus familiaris. Details: scale not given: the % may be the effect or the level left.
In the next data set the test system is HepG2. As to the kind of experiment: Cytotoxicity against human HepG2 cells assessed as inhibition of cell growth at 10 uM incubated for 72 hrs by MTT assay relative to control. It is filed as functional. Details: scale not given: the % may be the effect or the level left.

T1 sequence (P22303 whole entry): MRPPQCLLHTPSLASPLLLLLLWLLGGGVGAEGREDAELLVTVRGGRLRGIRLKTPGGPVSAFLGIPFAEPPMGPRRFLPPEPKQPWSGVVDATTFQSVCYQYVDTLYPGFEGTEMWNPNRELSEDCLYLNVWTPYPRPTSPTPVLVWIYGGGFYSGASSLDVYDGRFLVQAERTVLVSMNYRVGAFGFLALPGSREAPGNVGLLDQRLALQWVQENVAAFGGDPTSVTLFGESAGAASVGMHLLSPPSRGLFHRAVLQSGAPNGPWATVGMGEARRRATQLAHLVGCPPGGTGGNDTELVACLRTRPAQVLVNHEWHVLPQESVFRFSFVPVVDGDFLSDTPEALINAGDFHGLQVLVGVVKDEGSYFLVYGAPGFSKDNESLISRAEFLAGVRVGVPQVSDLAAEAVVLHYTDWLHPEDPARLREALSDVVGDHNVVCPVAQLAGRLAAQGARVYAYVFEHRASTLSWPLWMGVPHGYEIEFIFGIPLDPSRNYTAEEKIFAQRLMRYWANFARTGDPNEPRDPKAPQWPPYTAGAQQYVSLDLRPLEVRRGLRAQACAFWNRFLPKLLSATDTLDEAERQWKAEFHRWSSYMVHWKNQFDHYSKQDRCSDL
Description for A549: Antiproliferative activity against human A549 cells assessed as reduction in cell viability by MTT assay

A word on the IC50: it is the point on the concentration scale where inhibition reaches its midpoint. On to `COC(=O)C1=CO[C@H](OC)[C@H]2C(CN3CCN(Cc4nc(C)c(C)nc4C)CC3)=CC[C@@H]12`, for which it took 218 nM to reach half-maximal inhibition against Acetylcholinesterase [1] (IC50). With `COc1cc(/C=C/C(=O)c2ccc(OCCN3CCCC3)cc2)ccc1OCc1nc(C)c(C)nc1C`, the half-maximal inhibitory concentration (IC50) against Acetylcholinesterase [2] is 980 nM. The EC50 is the concentration that produces a half-maximal response. As for `COc1cc(CNC(=O)c2ccc(O)c(O)c2)ccc1OCc1nc(C)c(C)nc1C`, in data set [3], the EC50 came out at 4150 nM. Take `Cc1nc(C)c(CN2CCN(C(=O)C3=Cc4c(Cl)cccc4S3(=O)=O)CC2)nc1C`: the 50% inhibitory concentration (IC50) with HCT-116 was found to be 2670 nM; in the data set with MCF7, 1500 nM; with MDA-MB-231, 2200 nM. By solubility is commonly meant how much of the substance goes into solution per volume. Regarding `C=CCC(CC=C)(OC(=O)[C@@H](Cc1ccc(OC(C)=O)c(OC(C)=O)c1)OC(=O)CN)c1nc(C)c(C)nc1C`, the solubility in [4] was greater than 0.1 µg/mL. As to `O=[N+]([O-])c1ccc2c(c1)S(=O)(=O)C=C2`, the half-maximal inhibitory concentration (IC50) in the data set with HCT-116 is 1710 nM; in the data set with MCF7 it was 2080 nM; in the data set on MDA-MB-231 it was 3900 nM. Turning to `COc1ccc(/C=C2\CN(C)C/C(=C\c3nc(C)c(C)nc3C)C2=O)c(Cl)c1`, the half-inhibitory concentration (IC50) in data set [5] is 500 nM. Consider `Cc1nc(C)c(COC(=O)/C=C/c2ccc(OCc3nc(C)c(C)nc3C)cc2)nc1C`, for which the concentration giving a half-maximal response (EC50) with PC-12 was found to be 3680 nM.

Turning to `Cc1nc(C)c(C(=O)N2CCN(C(=O)C3=Cc4c(Br)cccc4S3(=O)=O)CC2)nc1C`, the concentration for half-maximal inhibition (IC50) is 6440 nM in the data set with HCT-116, 3290 nM in the data set with MCF7 and 4860 nM in the data set on MDA-MB-231. As to `Cc1nc(C)c(/C=C2\CN(C)C/C(=C\c3nc(C)c(C)nc3C)C2=O)nc1C`, the IC50 in data set [6] turned out to be 7500 nM.

As for `CCCCC(OC(=O)CN1CCN(C)CC1)c1ccc(I)cc1C(=O)OCc1nc(C)c(C)nc1C` (configuration not stated), the Activity with SH-SY5Y [7] is reported as 90%.

As for `O=c1c(-c2ccc(O)cc2)coc2cc(O)cc(O)c12` [GENISTEIN], in [8], the concentration in solution (solubility) came to 0.029 µg/mL (≈ 0.107 µM).

In turn, `COc1ccc(/C=C/C(=O)/C=C/c2nc(C)c(C)nc2C)cc1O` had an IC50 with A549 of 2190 nM. On to `Cc1nc(C)c(C(=O)NC2CCN(C(=O)C3=Cc4ccccc4S3(=O)=O)C2)nc1C` (configuration not stated), for which the IC50 in the data set on HCT-116, in the data set on MCF7 and in the data set with MDA-MB-231 was greater than 10000 nM throughout. For the molecule `O=C(/C=C/c1ccc(O)cc1)c1ccc(O)cc1O` [ISOLIQUIRITIGENIN], the IC50 stood at 320 nM in data set [9] and 2000 nM in data set [10].

Turning to `Cc1nc(C)c(/C=C/c2nc(C)c(C)nc2C)nc1C`, in the data set with HUVEC, a half-maximal effect (EC50) was put at 25600 nM.

In the case of `CC(=O)Oc1ccc(C[C@@H](OC(C)=O)C(=O)OCc2nc(C)c(C)nc2C)cc1OC(C)=O`, the EC50 in the data set with SH-SY5Y [11] was determined as 2560 nM. Consider `COc1cc(C(=O)Nc2cccc(N(C)C)c2)ccc1OCc1nc(C)c(C)nc1C`, for which, in the data set with PC-12, the EC50 is 17400 nM. For `Cc1nc(C)c(C(=O)NC2CCN(C(=O)C3=Cc4ccccc4S3(=O)=O)CC2)nc1C`, the 50% inhibitory concentration (IC50) in the data set with HCT-116, in the data set on MCF7 and with MDA-MB-231 was greater than 10000 nM each time. `C=C(C)[C@@H]1CC[C@]2(C(=O)OCc3nc(C)c(C)nc3C)CC[C@]3(C)[C@H](CC[C@@H]4[C@@]5(C)CC[C@H](O)C(C)(C)[C@@H]5CC[C@]43C)[C@@H]12`: the Activity stood at 26.5% in the data set on MDCK and 99.87% in the data set with HepG2.
